What was measured:
[1] = system: Myeloperoxidase accumulation (rat acetic acid colitis model); test: Acetic acid-induced colitis in rats, in vivo; set-up: species or system rat (Sprague-Dawley)
Description: Acetic Acid-Induced Colitis in Rats, In Vivo
The rat acetic acid-induced colitis bioassay has been described by J. E. Krawisz, et al. in Amer. J. Proc. Gastro. Col. Rec. Surg. 31: 11-18 (1980), and by P. Sharon and W. F. Stenson in Gastroenterolgy 88: 55-63 (1985) and 86:453-460 (1984). Acetic acid-induced colitis is characterized by the movement of inflammatory cells into the colon, with the number of such cells in the mucosa being measured by the activity of myeloperoxidase, a marker enzyme for these cells. Positive desirable activity is indicated by a reduction in the high levels of myeloperoxidase caused by acetic acid. Male rats (Sprague-Dawley), weighing 150 to 300 g, were pretreated twice daily for two days with either the vehicle (water, or dimethylsulfoxide) or the test inhibitor compound suspended in water or dissolved in dimethylsulfoxide and orally administered. On the third day, the animals were dosed the same as on the previous two days, anesthetized with metofane, and 2 ml of 2.5% acetic acid was injected by syringe into the colonic lumen, followed immediately by 3 ml of air and a rinse consisting of 3 ml of phosphate-buffered saline (the acetic acid is Present in the lumen for a sufficient period to cause inflammation without producing severe necrosis or irreversible damage). The animals were administered a second dose of the test compound in the same amount about 16 hours later. Twenty four hours after the acetic acid treatment, the animals were sacrificed, the colonic mucosa was surgically removed and homogenized in an aqueous buffer at pH 6 with a Tissumizer or similar device, and myeloperoxidase was measured in the homogenate using o-phenylenediamine as a chromagen, as described by A. Voller, D. E. Bidwell and A. Bartlett in The Enzyme Linked Immunosorbent Assay (ELISA), Zoological Soc., London, 1979, pages 29-30. Control animals were pretreated with the vehicle and saline in place of acetic acid.

[2] = system: PGE2 formation (cyclooxygenase (CO) pathway); test: Rat peritoneal macrophage assay, in vitro: PGE2 formation; assay type: cell-based; details: 0.5 h, rat peritoneal macrophages, 30 min incubation, A 23187-stimulated
Description: (§1) RAT PERITONEAL MACROPHAGE ASSAY, IN VITRO
(§2) The rat peritoneal macrophage assay measures the ability of a test compound to influence the release of arachidonic acid (AA) from phospholipid stores in the plasma membrane and the subsequent metabolism of AA by the Δ^5 -lipoxygenase (5-LO) and cyclooxygenase (CO) pathways to the final products excreted by the cells: leukotriene B4 (LTB4, from the 5-LO pathway) and prostaglandin E2 (PGE2, from the CO Pathway).
(§3) Macrophages were obtained from rats by peritoneal lavage with phosphate buffered saline minus Ca^+2 and Mg^+2 (PBS). Cells were washed 3 times with PBS and resuspended in Delbecco's Modified Eagle medium (Gibco Laboratories) containing L-glutamine and D-glucose and supplemented with 10% fetal calf serum. Cells were counted on a Coulter ZBA cell counter and then resuspended to a concentration of 4×10^6 cells/mL. […] The extracellular fluid was removed and ^14 C radioactivity released into this fluid from AA metabolism was measured by liquid scintillation spectroscopy. The amounts of LTB4 and PGE2 were measured in the extracellular fluid by radioimmunoassay with specific antisera. […]
(§4) This assay measures inhibition by the test compounds of the 5-LO and the CO pathways of AA metabolism and this inhibition is expressed as an IC50 for LTB4 and PGE2 formation, respectively.

[3] = system: LTB4 formation (Δ^5 -lipoxygenase (5-LO) pathway); test: Rat peritoneal macrophage assay, in vitro: LTB4 formation; assay type: cell-based; details: 0.5 h, rat peritoneal macrophages, 30 min incubation, A 23187-stimulated
Description: as §1, §2, §3, §4

[4] = target: T1, Δ^5 -lipoxygenase from rat basophilic leukemia (RBL-1) cells (Rattus norvegicus, UniProt P12527); test: In vitro test for Δ^5-lipoxygenase inhibitors (RBL-1 cell supernatant); assay type: biochemical; details: Δ^5-lipoxygenase from RBL-1 cells; 10 min preincubation at 30° C.; 6.7 μM arachidonic acid; 37° C.; pH 7.2
T1 construct: The Δ^5 -lipoxygenase was derived from the supernatant fraction of lysed RBL-1 cells; endogenous in cells; host or cells: RBL-1 (rat basophilic leukemia) cells, 49,000 g supernatant of the homogenate
T1 sequence (P12527 1-673): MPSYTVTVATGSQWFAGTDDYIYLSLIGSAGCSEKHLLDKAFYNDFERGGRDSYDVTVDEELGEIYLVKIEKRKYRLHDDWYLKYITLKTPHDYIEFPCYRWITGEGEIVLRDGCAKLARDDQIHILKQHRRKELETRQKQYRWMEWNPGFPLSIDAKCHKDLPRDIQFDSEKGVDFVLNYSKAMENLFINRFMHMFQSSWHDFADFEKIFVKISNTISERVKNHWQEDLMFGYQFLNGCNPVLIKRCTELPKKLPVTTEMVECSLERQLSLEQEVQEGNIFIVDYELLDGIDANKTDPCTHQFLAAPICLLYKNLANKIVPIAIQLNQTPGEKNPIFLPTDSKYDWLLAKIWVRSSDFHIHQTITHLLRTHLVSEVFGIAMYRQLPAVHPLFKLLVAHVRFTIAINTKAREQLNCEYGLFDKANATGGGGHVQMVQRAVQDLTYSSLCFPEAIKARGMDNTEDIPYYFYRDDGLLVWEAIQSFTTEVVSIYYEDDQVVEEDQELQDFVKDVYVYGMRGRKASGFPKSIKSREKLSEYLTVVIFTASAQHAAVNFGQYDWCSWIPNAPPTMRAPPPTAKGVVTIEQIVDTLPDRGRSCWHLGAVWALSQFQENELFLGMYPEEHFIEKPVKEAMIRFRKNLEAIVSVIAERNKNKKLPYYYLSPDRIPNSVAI
Procedure: IN VITRO TEST FOR Δ^5 -LIPOXYGENASE INHIBITORS
Compounds of formula I of the invention were tested for their effect on Δ^5 -lipoxygenase from rat basophilic leukemia (RBL-1) cells. The activity of this enzyme was determined by measuring the catalytic conversion of [1-^14 C]arachidonic acid to [1-^14 C-5-hydroperoxy- 6,8,11,14-eicosatetraenoic acid ([1-^14 C]-5-HPETE) which leads to the formation of the 5-hydroxy derivative ([1-^14 C]-5-HETE). The Δ^5 -lipoxygenase was derived from the supernatant fraction of lysed RBL-1 cells using a modification of the method previously described by Jakschik and Lee [Nature 287:51 (1980)]. Briefly, RBL-1 cells were lysed by homogenization in ice-cold buffer (50 mM Tris-HCl buffer, pH 7.2, containing 1 mM EDTA and 14 μM indomethacin). The homogenate was centrifuged at 4° C. and 49,000 g for 20 minutes and the resulting supernatant fraction was used as the source of Δ^5 -lipoxygenase. […] The ethereal extract containing [1-^14 C]-5-HETE and unreacted substrate analyzed by silica gel TLC using isooctane-methylethyl ketone acetic acid (100:9:1) as the developing solvent. […] The effect of inhibitors on Δ^5 -lipoxygenase activity was determined by preincubating the enzyme for 10 minutes at 30° C. in the presence or absence of various concentrations of the drug prior to addition of substrate. […]

| SMILES | % Inhibition of Myeloperoxidase Accumulation ([1]; 10 mg/kg p.o.) [%] | % Inhibition of Myeloperoxidase Accumulation ([1]; 1 mg/kg p.o.) [%] | other results |
| --- | --- | --- | --- |
| CCCc1c(OCCc2ccc3cc(O)c(O)cc3c2)ccc(C(=O)O)c1O [4-[2-(6,7-Dihydroxy-2-naphthalenyl)ethoxy]-2-hydroxy-3-propylbenzoic acid] | 60 ± 13 | – | – |
| CCCc1c(OCCCc2ccc3cc(O)c(O)cc3c2)ccc(C(=O)O)c1O [4-[3-(6,7-Dihydroxy-2-naphthalenyl)propoxy]-2-hydroxy-3-propylbenzoic acid] | – | 21 ± 4 | – |
| CCCc1c(OCCCCc2ccc3c(Cl)c(O)c(O)c(Cl)c3c2)ccc(C(=O)O)c1O [4-[4-(5,8-Dichloro-6,7-dihydroxy-2-naphthalenyl)butoxy]-2-hydroxy-3-propylbenzoic acid] | 71 ± 7 | – | – |
| CCCc1c(OCCCCc2ccc3cc(O)c(O)cc3c2)ccc(C(=O)O)c1O [4-[4-(6,7-Dihydroxy-2-naphthalenyl)butoxy]-2-hydroxy-3-propylbenzoic acid] | – | – | IC50 [2]: 2 µM; IC50 [3]: 3 µM; % Inhibition of Myeloperoxidase Accumulation ([1]; 3 mg/kg p.o.): 82 ± 8%; IC50 [4]: 0.0047 µM |
| CCCc1c(OCCCCCc2ccc3cc(O)c(O)cc3c2)ccc(C(=O)O)c1O [4-[5-(6,7-Dihydroxy-2-naphthalenyl)pentyloxy]-2-hydroxy-3-propylbenzoic acid] | 56 ± 11 | – | – |
| O=C(O)c1ccc(OCCCCCCc2ccc3cc(O)c(O)cc3c2)cc1O [4-[6-(6,7-Dihydroxy-2-naphthalenyl)hexyloxy]-2-hydroxybenzoic acid] | – | 65 ± 9 | – |
| O=C(O)c1ccc(OCCCCCCc2ccc3cc(O)c(O)cc3c2)cc1 [4-[6-(6,7-Dihydroxy-2-naphthalenyl)hexyloxy]benzoic acid] | 68 ± 13 | – | – |
| CCCc1c(OCCCCCCc2ccc3cc(O)c(O)cc3c2)ccc(C(=O)O)c1O [4-[6-(6,7-dihydroxy-2-naphthalenyl)hexyloxy]-2-hydroxy-3-propylbenzoic acid] | – | 46 ± 12 | – |
| CCCc1c(OCCCCC(=O)c2ccc3cc(O)c(O)cc3c2)ccc(C(=O)O)c1O [4-[[5-(6,7-Dihydroxy-2-naphthalenyl)-5-oxopentyl]oxy]-2-hydroxy-3-propylbenzoic acid] | – | – | % Inhibition of Myeloperoxidase Accumulation ([1]; 30 mg/kg p.o.): 80 ± 18% |
| CCCc1c(OCCCCCC(=O)c2ccc3cc(O)c(O)cc3c2)ccc(C(=O)O)c1O [4-[[6-(6,7-dihydroxy-2-naphthalenyl)-6-oxohexyl]oxy]-2-hydroxy-3-propylbenzoic acid] | – | – | IC50 [2]: 2 µM; IC50 [3]: 3 µM |

— patent US4937371A, “Dihydroxynaphthalene derivatives” (Hoffmann-La Roche Inc., priority 1989, dated 1990)
